Where two headings read alike, the source gives them in different places. Ends that are not written are not given here.
Key:
[1] = tested on: Brucella abortus; type: in vivo; conditions: 0.176 milligrams/day intramuscularly for 4 days from 12th day post infection; sacrificed 16th day post infection
[2] = tested on: E. coli E/2/64; assay: In vitro exposure and plate count, E. coli (Example 3); type: cell-based
Protocol: A known number of viable microorganisms were exposed to a known concentration of the antimicrobial agent for a given time period. Following exposure, the undiluted or diluted microorganisms were plated on solid growth media, e.g., agar plates. The plates were incubated and numbers of organisms determined by making plate counts. Comparisons are then made with the non-treated bacteria for evidence of inhibition, mortality, or both. The following Examples give detailed experimental procedures and results for several microorganisms and antimicrobial agents. […] The E. coli is collected in late log phase growth at which the majority of cells are in growth phase at 18-24 hours. […] The mixtures were incubated at room temperature for 1 hour, and then at 37° C. for 30 minutes. The mixtures were diluted to 10^-1 or 10^-3 with serial dilutions at 7 drops per dilution (10 microliters per drop), plated on agar growth media, which is a tryptose agar. The plates were incubated for 3 days at 37° C. Plate counts were then made and the results given below.

[3] = tested on: Brucella abortus; type: cell-based
[4] = BALB/C mice
Protocol: The safety of antimicrobial agents according to the present invention was tested according to standard procedures in animal studies.
Six BALB/C mice, 4 to 5 weeks of age, maintained on commercial rodent ration fed ad libidum and in general good health were each inoculated with 1.76 milligrams/day of cecropin C-37 in balanced salt solution intramuscularly for 4 consecutive days. No other change was made in diet or conditions. […] At the end of the fourth day, three of the […] were humanely destroyed and examined. After 30 days, 3 of the 6 were given an additional 1.76 milligrams each.
The remaining mice were all killed 7 days after the last inoculation.
Following the procedure above in Part A, three BALB/C mice were given 110 milligrams/kilogram of body weight of cecropin C-37 injected intramuscularly in balanced salt solution for 6 days. White cell counts and differentials were performed on a daily basis. Ten days after the last inoculation, the mice were again injected intramuscularly with 110 milligrams/kilogram of body weight with Cecropin C-37. […] All three mice were killed 7 days after the final inoculation and tissues were examined.

In the case of CN(C)[C@@H]1C(O)=C(C(N)=O)C(=O)[C@@]2(O)C(O)=C3C(=O)c4c(O)cccc4[C@@](C)(O)[C@H]3C[C@@H]12 [Tetracycline, tetracycline], the “Concentration of Brucella abortus in BALB/c Mouse Spleen Tissue After 4 Days Treatment” value [1] is reported as 4.4 × 10^3 per gram of spleen.
In the case of “KWKVFKKIEKMGRNIRNGIVKAGPAIAVLGEAKAL-NH2 [Cecropin B]”, the “Effect on E. coli (growth)” value ([2]; 5 × 10^-6 molar) is reported as “no growth”, the “Effect on E. coli (growth)” value ([2]; lower concentrations of 1 nanomolar and 1 micromolar) is reported as “positive E. coli growth” and the “Effect on Brucella abortus (growth)” value [3] is reported as “no growth”.
For “MPKWKVFKKIEKVGRNIRNGIVKAGPAIAVLGEAKAL-NH2 [Cecropin C-37]”, the “IgG antibody to the antimicrobial agent” value ([4]; 1.76 milligrams/day intramuscularly) was “None of these mice produced detectable levels”, the adverse reactions ([4]; 1.76 milligrams/day intramuscularly for 4 consecutive days, observed twice daily) was “no adverse reactions” and the “gross pathological changes in organs and at injection sites” value ([4]; 1.76 milligrams/day intramuscularly, killed 7 days after last inoculation) was “no gross pathological changes”. The “Cecropin C-37 antibodies” value ([4]; 110 milligrams/kilogram intramuscularly) was “No Cecropin C-37 antibodies were detected”, the adverse effects ([4]; 110 milligrams/kilogram intramuscularly for 6 days, again ten days after) was “no adverse effects” and the tissue examination ([4]; 110 milligrams/kilogram intramuscularly, killed 7 days after final inoculation) was “enlarged spleens but were otherwise unremarkable”. For the same compound, the adverse reactions ([4]; additional 1.76 milligrams each after 30 days) was “No adverse reactions”.
In the case of “lysozyme: lysozyme, tested by itself and combined with cecropins”, the “Effect on E. coli (growth)” value ([2]; lysozyme itself at 10 micrograms, 1 milligram, and 10 milligrams per milliliter, 10^-1 and 10^-3 dilutions) is reported as “positive growth”.

— patent US6303568A, “Therapeutic antimicrobial polypeptides, their use and methods for preparation” (Helix Biomedix, Inc., priority 1996, dated 2001)
